Results on 5 molecules are retold here after patent US20100184727A1, “TREATMENT OF EXCESS SEBUM PRODUCTION” (SUMMIT (CAMBRIDGE) LIMITED, priority 2006, published 2010).

Values after ≈ are worked out from the molar mass of the structure shown. Structures can show the parent of a compound that is named as a salt. Where two headings read alike, the source gives them in different places.

Assay [1] has as its system Propionibacterium acnes NCTC 737. The assay is described as follows: MIC/MBC 96-well plate broth micro-dilution assay. The assay is classed as cell-based. Conditions: for MBC / MIC: Cutibacterium acnes. The protocol: The anaerobic cutaneous propionibacteria e.g. Propionibacterium acnes are implicated in the pathogenesis of acne vulgaris. The test organism Propionibacterium acnes is classified as a ‘Type’ strain for the species. […] MIC determinations were carried out using a standard 96-well plate broth micro-dilution assay. Wilkins-Chalgren anaerobe broth at pH 6 and pH 7.1±0.2 was used for P. acnes. […] The test range for the control compounds varied depending on known activity levels. […] Benzoyl peroxide and erythromycin were used as control compounds in P. acnes assays. Benzoyl peroxide and erythromycin were both dissolved in ethanol.
(Broth dilution looks for growth in wells or tubes with falling amounts of substance.)

Another assay has as its system sebum production. The assay is described as follows: Sebum production study in healthy male volunteers (Sebumeter). The assay is classed as in vivo. As to conditions: for Sebum Production Maximum % Reduction LS Means: compared to placebo, healthy male volunteers. The protocol:
The study examined the effects of oxybutynin on sebum production in 9 healthy male volunteers. This was double-blind, randomised, placebo-controlled dose study
The subjects were assessed on each dosing occasion for sebum production pre-dose and 1 h, 2.5 h, 4 h and 6 h post-dose. Skin sebum excretion rates were determined using a Sebumeter® (Optical measurement of sebum excretion using opalescent film imprint, 2006, Handbook of non-invasive methods and the skin, Second Edition). Vital signs were recorded at specified times during each study period and adverse events were reported throughout.
For each subject, the maximum % reduction in sebum production compared to placebo was calculated for each dose level. Using this information, a mixed effects regression analysis of the % reduction in sebum versus dose with subject as a random effect was performed.

[2] abbreviates: NCTC737, pH 6, Wilkins-Chalgren agar, mean of minimum 4 replicates, read-out: MBC.
Where [3] appears, read: NCTC737, pH 6, Wilkins-Chalgren anaerobe broth, mean of minimum 4 replicates, read-out: MIC.
The mark [4] stands for this setting: NCTC737, pH 7.1 ± 0.2, Wilkins-Chalgren agar, mean of minimum 4 replicates, read-out: MBC.
[5] abbreviates: NCTC737, pH 7.1 ± 0.2, Wilkins-Chalgren anaerobe broth, mean of minimum 4 replicates, read-out: MIC.

As a reminder, the MBC is the smallest concentration meeting the test's criterion for killing. In general, MIC refers to the smallest concentration in the dilution series that meets the test's criterion for growth inhibition. Regarding `O=C(OOC(=O)c1ccccc1)c1ccccc1` [Benzoyl peroxide], in assay [1] (NCTC737, pH 6), the MBC was 62.5 mg/L (≈ 258 µM) and the MIC is 31.2 mg/L (≈ 129 µM). For the same molecule, in assay [1] (NCTC737, pH 7.1), the MBC was determined as 62.5 mg/L (≈ 258 µM) and inhibition of growth (MIC) required 31.2 mg/L (≈ 129 µM).
For `NC(=O)C(c1ccccc1)(c1ccccc1)[C@@H]1CCN(CCc2ccc3c(c2)CCO3)C1` [Darifenacin hydrobromide, darifenacin hydrobromide], the MBC was 1000 mg/L in assay [1] (setting [2]) and 500 mg/L in assay [1] (setting [4]). Moreover, the MIC in assay [1] (setting [3]) and in assay [1] (setting [5]) was 500 mg/L each time. Moreover, the “Antimicrobial activity against P. acnes (in words)” value in assay [1] (pH 6) and in assay [1] (pH 7.1±0.2) was “some moderate antimicrobial activity” throughout.
Turning to `CC[C@H]1OC(=O)[C@H](C)[C@@H](O[C@H]2C[C@@](C)(OC)[C@@H](O)[C@H](C)O2)[C@H](C)[C@@H](O[C@@H]2O[C@H](C)C[C@H](N(C)C)[C@H]2O)[C@](C)(O)C[C@@H](C)C(=O)[C@H](C)[C@@H](O)[C@]1(C)O` [Erythromycin], the MBC in assay [1] (setting [2]) and in assay [1] (setting [4]) was more than 2.5 mg/L in each case. For the same molecule, the MIC was 0.63 mg/L (≈ 0.858 µM) in assay [1] (setting [3]) and 0.313 mg/L (≈ 0.426 µM) in assay [1] (setting [5]).
On to `CCN(CC)CC#CCOC(=O)C(O)(c1ccccc1)C1CCCCC1` (stereo not shown) [Oxybutynin chloride, oxybutynin chloride], for which the values for the MBC in assay [1] (setting [2]) and in assay [1] (setting [4]) were 1000 mg/L and 500 mg/L, respectively. In addition, the MIC in assay [1] (setting [3]) and in assay [1] (setting [5]) was 500 mg/L throughout. Further, the “Antimicrobial activity against P. acnes (in words)” value in assay [1] (pH 6) and in assay [1] (pH 7.1±0.2) was “some moderate antimicrobial activity” in each case.
In the case of `CCN(CC)CC#CCOC(=O)C(O)(c1ccccc1)C1CCCCC1` (stereo not shown) [oxybutynin], the “Sebum Production Maximum % Reduction LS Means” value in the assay on sebum production (dose 1 mg) was 21.59%; in the assay with sebum production (dose 2 mg) it was −16.94%; in the assay with sebum production (dose 5 mg) it was −34.74%; in the assay with sebum production (dose 10 mg) it was −75.52%. Further, the “Effect on sebum production (in words)” value in the assay with sebum production (following administration of 2 mg, 5 mg and 10 mg) is recorded as “decreased with dose”.
